The target of one data set is T1, rat NaP2b (SLC34A2) (Rattus norvegicus, UniProt Q9JJ09).
T1 construct: host or cells: HEK293
T1 sequence (Q9JJ09 1-695): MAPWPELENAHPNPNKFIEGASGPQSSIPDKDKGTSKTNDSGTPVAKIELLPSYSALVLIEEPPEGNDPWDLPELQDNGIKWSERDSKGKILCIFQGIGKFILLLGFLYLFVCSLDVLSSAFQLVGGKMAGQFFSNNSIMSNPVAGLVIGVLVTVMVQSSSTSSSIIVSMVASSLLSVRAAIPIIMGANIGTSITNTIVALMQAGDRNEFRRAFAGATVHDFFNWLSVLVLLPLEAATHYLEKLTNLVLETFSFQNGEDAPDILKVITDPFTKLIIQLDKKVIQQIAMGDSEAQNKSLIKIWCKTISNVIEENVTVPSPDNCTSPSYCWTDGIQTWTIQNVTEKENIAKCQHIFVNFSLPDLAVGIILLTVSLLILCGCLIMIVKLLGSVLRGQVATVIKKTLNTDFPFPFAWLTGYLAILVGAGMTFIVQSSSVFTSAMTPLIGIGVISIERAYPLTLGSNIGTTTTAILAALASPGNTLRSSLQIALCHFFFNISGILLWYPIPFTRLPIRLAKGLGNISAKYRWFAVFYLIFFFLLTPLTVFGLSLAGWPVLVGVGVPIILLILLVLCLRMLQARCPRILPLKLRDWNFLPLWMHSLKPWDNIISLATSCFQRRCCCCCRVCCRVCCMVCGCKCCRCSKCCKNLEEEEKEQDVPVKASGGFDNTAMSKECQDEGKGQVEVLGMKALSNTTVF
In words: Inhibition of NaP2b-mediated Pi (33P) uptake in transfected HEK293 cells, rat NaP2b. Type of data set: cell-based. Particulars: 33P Pi uptake, 0.1 mM phosphate, value given as pIC50 range. An outline of the steps: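 The cells transiently expressed NaP2b after Lipofectamine transfection. Each compound was run in duplicate over twelve concentrations, 0.1 nM–30 uM.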

The target in another data set is T2, human NaP2b (SLC34A2) (Homo sapiens, UniProt O95436).
T2 construct: host or cells: HEK293
T2 sequence (O95436 1-690): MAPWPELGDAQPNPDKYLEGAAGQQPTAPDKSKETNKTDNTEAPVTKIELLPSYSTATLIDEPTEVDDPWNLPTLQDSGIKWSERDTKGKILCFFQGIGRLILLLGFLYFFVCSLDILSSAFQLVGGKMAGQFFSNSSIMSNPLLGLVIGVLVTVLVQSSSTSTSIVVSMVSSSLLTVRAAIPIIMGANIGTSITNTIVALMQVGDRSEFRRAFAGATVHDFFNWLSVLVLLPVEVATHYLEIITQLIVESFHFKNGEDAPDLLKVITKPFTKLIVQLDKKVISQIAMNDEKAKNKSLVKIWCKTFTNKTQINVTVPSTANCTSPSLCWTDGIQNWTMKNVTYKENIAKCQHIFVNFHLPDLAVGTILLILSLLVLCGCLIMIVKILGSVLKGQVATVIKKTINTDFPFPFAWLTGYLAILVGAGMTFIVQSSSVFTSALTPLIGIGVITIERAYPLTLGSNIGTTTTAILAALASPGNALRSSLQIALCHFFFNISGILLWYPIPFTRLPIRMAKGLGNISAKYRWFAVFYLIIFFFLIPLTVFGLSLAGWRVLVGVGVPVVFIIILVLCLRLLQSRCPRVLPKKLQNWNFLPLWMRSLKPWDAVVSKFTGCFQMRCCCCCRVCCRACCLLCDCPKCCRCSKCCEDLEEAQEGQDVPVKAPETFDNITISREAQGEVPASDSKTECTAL
In words: Inhibition of NaP2b-mediated Pi (33P) uptake in transfected HEK293 cells, human NaP2b. It counts as cell-based. The following applies: read-out: pIC50 range for human NaP2b (converted). In a few lines:
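Uptake of 33P-phosphate (100 uM KH2PO4 carrier, sodium vs choline buffer, pH 7.4) measured after 3-30 min at room temperature, with test compound at twelve concentrations from 0.1 nM to 30 uM in duplicate. Cells were HEK293 transfected with mutated human NaP2b (Thr insertion after 37, N39D) and treated with a PiT-silencing agent. pIC50 values from scintillation counts.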

The nature of data set [1]: Determination of compound Cmax and AUC after oral gavage (plasma LC-MS/MS). Type of data set: in vivo, Sprague-Dawley rats. Particulars: Sprague-Dawley, rat, plasma, po, Structure (I) examples, Table 15, actual oral dose 3-15 mg/kg, plasma 0.5-4 h. How it is done:
Sprague-Dawley rats were orally gavaged with test article at a nominal dose of 2.5 or 10 mg/kg and blood was collected at 0.5, 1, 2 and 4 h. Blood samples were processed to plasma using K2EDTA as an anticoaglulant. Plasma samples were treated with acetonitrile containing an internal standard, precipitated proteins removed by centrifugation. Supernatants were analyzed by LC-MS/MS and compound concentrations were determined by interpolation from a standard curve prepared in plasma. All compounds were orally dosed at the dosage shown, and pharmacokinetic parameters determined.
(§1) Sprague-Dawley rats were orally gavaged with test article at a nominal dose of 2.5 or 10 mg/kg and blood was collected at 0.5, 1, 2 and 4 h. Blood samples were processed to plasma using K2EDTA as an anticoaglulant. Plasma samples were treated with acetonitrile containing an internal standard, precipitated proteins removed by centrifugation. Supernatants were analyzed by LC-MS/MS and compound concentrations were determined by interpolated from a standard curve prepared in plasma. All compounds were orally dosed at the dosage shown, and pharmacokinetic parameters determined.
as §1

A value given as a limit tells only on which side of the number the result lay.

Results on 13 molecules are retold here after patent publication US20140023611A1 (priority 2010, published 2014).

One may read the AUC as the area under the concentration-time curve, a measure of exposure. A high value points to high exposure. What is called Cmax is the highest concentration seen after dosing. For the molecule `CCN(CC)c1ccc(NC(=O)c2cccc(CSc3cccc(CC(=O)O)c3)c2)c(-c2cc(C(=O)NCc3cccc(C(F)(F)F)c3)ccn2)c1` [Example 143, 2-(3-(3-(4-(diethylamino)-2-(4-(3-(trifluoromethyl)benzylcarbamoyl)pyridin-2-yl)phenylcarbamoyl)benzylthio)phenyl)acetic acid], on rat NaP2b (SLC34A2), the IC50 is less than 1000 nM. Also, the IC50 on human NaP2b (SLC34A2) was less than 1000 nM. In data set [1], this molecule came in with an exposure (AUC) of less than 10 ng·h/mL and a Cmax of less than 10 ng/mL.

Consider `CN(CCN1CCNC(=O)C1)C(=O)c1cccc(C(=O)Nc2ccc(N3CCCCC3)cc2-c2cc(C(=O)N[C@H]3CCCc4ccccc43)ccn2)c1` [Example 215, (S)—N1-methyl-N1-(2-(3-oxopiperazin-1-yl)ethyl)-N3-(4-(piperidin-1-yl)-2-(4-(1,2,3,4-tetrahydronaphthalen-1-ylcarbamoyl)pyridin-2-yl)phenyl)isophthalamide], for which the IC50 against rat NaP2b (SLC34A2) and at human NaP2b (SLC34A2) was less than 1000 nM in each case. Moreover, the AUC in data set [1] is less than 10 ng·h/mL. The Cmax in data set [1] is less than 10 ng/mL.

Regarding `CN1CCN(CCN(C)C(=O)c2cccc(C(=O)Nc3ccc(N4CCCCC4)cc3-c3cc(C(=O)N[C@H]4CCCc5ccccc54)ccn3)c2)CC1=O` [Example 216, (S)—N1-methyl-N1-(2-(4-methyl-3-oxopiperazin-1-yl)ethyl)-N3-(4-(piperidin-1-yl)-2-(4-(1,2,3,4-tetrahydronaphthalen-1-ylcarbamoyl)pyridin-2-yl)phenyl)isophthalamide], on rat NaP2b (SLC34A2), the IC50 is less than 1000 nM. Besides, the IC50 on human NaP2b (SLC34A2) is less than 1000 nM. In data set [1], this molecule returned an AUC of less than 10 ng·h/mL and a Cmax of less than 10 ng/mL.

`O=C(O)CCOCCOCCOCCNC(=O)c1cccc(SCc2cccc(C(=O)Nc3ccc(N4CCCCC4)cc3-c3cc(C(=O)N[C@H]4CCCc5ccccc54)ccn3)c2)c1` [Example 233, (S)-1-oxo-1-(3-(3-(4-(piperidin-1-yl)-2-(4-(1,2,3,4-tetrahydronaphthalen-1-ylcarbamoyl)pyridin-2-yl)phenylcarbamoyl)benzylthio)phenyl)-5,8,11-trioxa-2-azatetradecan-14-oic acid] gave an IC50 on rat NaP2b (SLC34A2) of 1000 to 7940 nM. Further, the IC50 on human NaP2b (SLC34A2) was 1000 to 7940 nM. In data set [1], the AUC was less than 10 ng·h/mL and the Cmax is less than 10 ng/mL.

For the molecule `CCN(CC)c1ccc(NC(=O)c2cccc(CCCOCCOCCOCCOCCC(=O)N3CCN(S(=O)(=O)c4ccc(C)cc4)CC3)c2)c(-c2cc(C(=O)NCc3cccc(C(F)(F)F)c3)ccn2)c1` [Example 291, 2-(5-(diethylamino)-2-(3-(16-oxo-16-(4-tosylpiperazin-1-yl)-4,7,10,13-tetraoxahexadecyl)benzamido)phenyl)-N-(3-(trifluoromethyl)benzyl)isonicotinamide], the IC50 against rat NaP2b (SLC34A2) was 1000 to 7940 nM; on human NaP2b (SLC34A2) it was less than 1000 nM.

Take `CCN(CC)c1ccc(NC(=O)c2cccc(CCCOCCOCCOCCOCCC(=O)N3CCN(S(=O)(=O)C(C)C)CC3)c2)c(-c2cc(C(=O)NCc3cccc(C(F)(F)F)c3)ccn2)c1` [Example 292, 2-(5-(diethylamino)-2-(3-(16-(4-(isopropylsulfonyl)piperazin-1-yl)-16-oxo-4,7,10,13-tetraoxahexadecyl)benzamido)phenyl)-N-(3-(trifluoromethyl)benzyl)isonicotinamide]: the IC50 at rat NaP2b (SLC34A2) was 1000 to 7940 nM; on human NaP2b (SLC34A2), less than 1000 nM.

As to `CCN(CC)c1ccc(NC(=O)c2cccc(CCCOCCOCCOCCOCCC(=O)O)c2)c(-c2cc(C(=O)N[C@H]3CCCc4ccccc43)ccn2)c1` [Example 302, (S)-16-(3-(4-(diethylamino)-2-(4-(1,2,3,4-tetrahydronaphthalen-1-ylcarbamoyl)pyridin-2-yl)phenylcarbamoyl)phenyl)-4,7,10,13-tetraoxahexadecan-1-oic acid], the IC50 at rat NaP2b (SLC34A2) and on human NaP2b (SLC34A2) was less than 1000 nM in each case.

As to `O=C(O)CCOCCOCCOCCOCCCc1cccc(C(=O)Nc2ccc(N3CCCCC3)cc2-c2cc(C(=O)NCc3cccc(C(F)(F)F)c3)ccn2)c1` [Example 303, 16-(3-(4-(piperidin-1-yl)-2-(4-(3-(trifluoromethyl)benzylcarbamoyl)pyridin-2-yl)phenylcarbamoyl)phenyl)-4,7,10,13-tetraoxahexadecan-1-oic acid], the IC50 against rat NaP2b (SLC34A2) was 1000 to 7940 nM; on human NaP2b (SLC34A2), less than 1000 nM.

For the molecule `CCN(CC)c1ccc(NC(=O)c2cccc(CCCOCCOCCOCCOCCOCCOCCC(=O)O)c2)c(-c2cc(C(=O)N[C@H]3CCCc4ccccc43)ccn2)c1` [Example 304, (S)-22-(3-(4-(diethylamino)-2-(4-(1,2,3,4-tetrahydronaphthalen-1-ylcarbamoyl)pyridin-2-yl)phenylcarbamoyl)phenyl)-4,7,10,13,16,19-hexaoxadocosan-1-oic acid], the IC50 against rat NaP2b (SLC34A2) and at human NaP2b (SLC34A2) was less than 1000 nM throughout.

For the molecule `CCN(CC)c1ccc(NC(=O)c2cccc(CCCOCCOCCOCCOCCOCCC(=O)O)c2)c(-c2cc(C(=O)N[C@H]3CCCc4ccccc43)ccn2)c1` [Example 306, (S)-19-(3-(4-(diethylamino)-2-(4-(1,2,3,4-tetrahydronaphthalen-1-ylcarbamoyl)pyridin-2-yl)phenylcarbamoyl)phenyl)-4,7,10,13,16-pentaoxanonadecan-1-oic acid], the IC50 at rat NaP2b (SLC34A2) and at human NaP2b (SLC34A2) was less than 1000 nM each time.

In the case of `CCN(CC)c1ccc(NC(=O)c2cccc(CCCOCCOCCOCCOCCOCC(CO)(CO)CO)c2)c(-c2cc(C(=O)NCc3cccc(C(F)(F)F)c3)ccn2)c1` [Example 332, N-(3-(trifluoromethyl)benzyl)-2-(5-(diethylamino)-2-(3-(3-(2-(2-(2-(2-(3-hydroxy-2,2-bis(hydroxymethyl)propoxy)ethoxy)ethoxy)ethoxy)ethoxy)propyl)benzamido)phenyl)isonicotinamide], the IC50 against rat NaP2b (SLC34A2) and at human NaP2b (SLC34A2) was less than 1000 nM throughout.

With `CCN(CC)c1ccc(NC(=O)c2cccc(C(=O)N(C)CCN(CCOC)CCOCCOCCOCCC(=O)NC(C)(C)C)c2)c(-c2cc(C(=O)NCc3cccc(C(F)(F)F)c3)ccn2)c1` [Example 337, N^1-(4-(Diethylamino)-2-(4-(3-(trifluoromethyl)benzylcarbamoyl)pyridin-2-yl)phenyl)-N3-(3-(2-methoxyethyl)-17,17-dimethyl-15-oxo-6,9,12-trioxa-3,16-diazaoctadecyl)-N^3-methylisophthalamide], the IC50 against rat NaP2b (SLC34A2) and on human NaP2b (SLC34A2) was 1000 to 7940 nM in each case.

In the case of `CCN(CC)c1ccc(NC(=O)c2cccc(C(=O)N(C)CCN(CCOC)CCOCCOCCOCCC(=O)N(C)CCN3CCOCC3)c2)c(-c2cc(C(=O)NCc3cccc(C(F)(F)F)c3)ccn2)c1` [Example 338, N^1-(4-(Diethylamino)-2-(4-(3-(trifluoromethyl)benzylcarbamoyl)pyridin-2-yl)phenyl)-N^3-(3-(2-methoxyethyl)-16-methyl-18-morpholino-15-oxo-6,9,12-trioxa-3,16-diazaoctadecyl)-N^3-methylisophthalamide], the IC50 against rat NaP2b (SLC34A2) and on human NaP2b (SLC34A2) was 1000 to 7940 nM each time.
